Measurements from patent EP0894089B9, “NOVEL HETEROCYCLIC COMPOUNDS HAVING ANTIDIABETIC, HYPOLIPIDAEMIC, ANTIHYPERTENSIVE PROPERTIES, PROCESS FOR THEIR PREPARATION AND PHARMACEUTICAL COMPOSITIONS CONTAINING THEM” (Dr. Reddy's Laboratories Ltd., priority 1997, dated 1997).
Counter-ions that a name gives are not always drawn.

Tested on: C57BL/KsJ-db/db mice
Test: blood sugar and triglycerides lowering activity in db/db mice (in vivo)
Conditions: male C57BL/KsJ-db/db mice; for Triglyceride Lowering (%) / Reduction in Blood Glucose Level (%): 30 mg / kg oral gavage daily for 6 days, one hour after administration; for Triglyceride Lowering (%): plasma triglyceride on 6th day; for Reduction in Blood Glucose Level (%): random plasma glucose on 6th day
From the text: Mutation in colonies of laboratory animals and different sensitivities to dietary regimens have made the development of animal models with non-insulin dependent diabetes associated with obesity and insulin resistance possible. Genetic models such as db/db and ob/ob (See Diabetes, (1982) 31(1) : 1- 6) in mice and fa/fa and zucker rats have been developed by the various laboratories for understanding the pathophysiology of disease and testing the efficacy of new antidiabetic compounds (Diabetes, (1983) 32: 830-838; Annu. Rep. Sankyo Res. Lab. (1994). 46 : 1-57). The homozygous animals, C57 BL/KsJ-db/db mice developed by Jackson Laboratory, US, are obese, hyperglycemic, hyperinsulinemic and insulin resistant (J. Clin. Invest., (1990) 85 : 962-967), whereas heterozygous are lean and normoglycemic. In db/db model, a mouse progressively develops insulinopenia with age, a feature commonly observed in late stages of human type II diabetes when blood sugar levels are insufficiently controlled. The state of pancreas and its course vary according to the models. Since this model resembles that of type II diabetes mellitus, the compounds of the present invention were tested for blood sugar and triglycerides lowering activities.
Male C57BL/KsJ-db/db mice of 8 to 14 weeks age, having body weight range of 35 to 60 grams, procured from the Jackson Laboraotory, USA, were used in the experiment. The mice were provided with standard feed (National Institute of Nutrition, Hyderabad, India) and acidified water, ad libitum. The animals having more than 300 mg / dl blood sugar were used for testing. The number of animals in each group was 4.
The random blood sugar and triglyceride levels were measured by collecting blood (100 µl) through orbital sinus, using heparinised capillary in tubes containing EDTA which was centrifuged to obtain plasma. The plasma glucose and triglyceride levels were measured spectrometrically, by glucose oxidase and glycerol-3-PO4 oxidase/peroxidase enzyme (Dr. Reddy's Lab. Diagnostic Division Kits, Hyderabad, India) methods respectively. On 6th day the blood samples were collected one hour after administration of test compounds / vehicle for assessing the biological activity.
Test compounds were suspended on 0.25 % carboxymethyl cellulose and administered to test group at a dose of 30 mg / kg through oral gavage daily for 6 days. The control group received vehicle (dose 10 ml / kg).
The blood sugar and triglycerides lowering activities of the test compound was calculated according to the formula: Blood sugar / triglycerides lowering activity (%) = 1 -(DT/DC)/(TC/ZC)X 100 [formula] • ZC = Zero day control group value • DC = Zero day treated group value • TC = Control group value on test day • DT = Treated group value on the test day

| Compound | Triglyceride Lowering (%) | Reduction in Blood Glucose Level (%) | reduction in random blood sugar level (100 mg / kg, daily dose, on 6th day) |
| --- | --- | --- | --- |
| Cc1oc2c(C)c(C)c(OCc3ccccc3)c(C)c2c1CN1CCC[C@H]1COc1ccc(C=C2SC(=O)NC2=O)cc1 [Example 20, 5-[4-[N-(5-Benzyloxy-2,4,6,7-tetramethylbenzofuran-3-ylmethyl)-(2S)-pyrrolidine-2-methoxy]phenylmethylene]thiazolidine-2,4-dione] | 43% | 16% |  |
| Cc1c(C)c2c(c(C)c1OCc1ccccc1)CCC(C)(CN1CCC[C@H]1COc1ccc(CC3SC(=O)NC3=O)cc1)O2 (stereo partly drawn) [Example 7, 5-[4-[N-(2RS)-6-Benzyloxy-2,5,7,8,-tetramethylchroman-2-ylmethyl]-(2S)-pyrrolidine-2-methoxy]phenyl methyl]thiazolidine-2,4-dione, sodium salt] | 70% | 36% |  |
| Cc1c(C)c2c(c(C)c1O)CCC(C)(COc1ccc(CC3SC(=O)NC3=O)cc1)O2 (stereo not shown) [Troglitazone, reference compound] |  |  | 28% |
| Cc1c(C)c2c(c(C)c1OCc1ccccc1)C(CN1CCC[C@H]1COc1ccc(C=C3SC(=O)NC3=O)cc1)C(C)(C)O2 (stereo partly drawn) [Example 13, 5-[4-[N-[3(RS)-5-Benzyloxy-2,3-dihydro-2,2,4,6,7-pentamethylbenzofuran-3-ylmethyl]-(2S)-pyrrolidine-2-methoxy]phenylmethylene]thiazolidine-2,4-dione maleate] | 42% | 45% |  |
